Results as given in patent US8853245B2, “Orally bioavailable dabigatran prodrugs for the treatment of diseases” (Dritte Patentportfolio Beteiligungsgesellschaft mbH & Co. KG, priority 2011, dated 2014).
≈ marks a conversion by molar mass, not a printed value. Entries after “also recorded” stand apart in the source; their conditions may differ. Read-outs that look alike come from different tables or passages of the source.

Legend:
[1] = Stability (ester hydrolysis) in human plasma; format: in vitro ADME; conditions: 0.2 mM, 37° C., up to 150 min, listed as dabigatran amidoxime succinic acid ester (1)
Method: (§1) Further analyses were conducted with human and murine plasma. 900 μl of the plasma was mixed with 100 μl of a 2 mM solution of dabigatran amidoxime succinic acid ester (1). The final concentration of dabigatran amidoxime succinic acid ester (1) was thus 0.2 mM. The samples were incubated at 37° C. in a shaking water bath and samples were taken after 0, 15, 30, 45, 60, 90, 120 and 150 min. For this purpose, 100 μl was drawn in each case and mixed with 100 μl acetonitrile. The samples were shaken, centrifuged for 5 min and the supernatant was measured via HPLC. The results are illustrated in FIGS. 2 and 3.

[2] = Solubility in phosphate buffer at various pH values; format: physicochemical; conditions: pH 2.0, preliminary test runs
[3] = target: albumin (Homo sapiens, UniProt P02768); experiment: Plasma protein binding (4% albumin solution, ultrafiltration); format: in vitro ADME; conditions: 10, 25 and 50 μM, 15 min at 37° C.
Sequence of albumin (P02768 25-609, species assumed): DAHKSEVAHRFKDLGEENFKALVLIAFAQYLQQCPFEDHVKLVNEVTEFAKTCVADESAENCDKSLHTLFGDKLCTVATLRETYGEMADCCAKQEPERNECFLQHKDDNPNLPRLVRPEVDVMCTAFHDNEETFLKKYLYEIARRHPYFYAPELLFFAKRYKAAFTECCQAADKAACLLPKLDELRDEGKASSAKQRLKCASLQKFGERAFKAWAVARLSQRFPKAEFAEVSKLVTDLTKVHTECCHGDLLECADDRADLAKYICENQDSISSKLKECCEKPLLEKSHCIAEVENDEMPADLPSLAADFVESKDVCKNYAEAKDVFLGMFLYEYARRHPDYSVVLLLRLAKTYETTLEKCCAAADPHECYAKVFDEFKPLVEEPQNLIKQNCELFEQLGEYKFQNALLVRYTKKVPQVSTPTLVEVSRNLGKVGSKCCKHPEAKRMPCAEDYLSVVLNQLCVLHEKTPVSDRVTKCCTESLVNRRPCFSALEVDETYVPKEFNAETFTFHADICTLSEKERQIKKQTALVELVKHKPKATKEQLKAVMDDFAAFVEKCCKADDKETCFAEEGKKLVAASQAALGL
Method: The plasma protein binding was determined at three different concentrations (10, 25, and 50 μM). A 4% albumin solution was used as the protein solutions. 50 μl of a 10 times concentrated substance solution were in each case pipetted to 450 μl of the protein solution. Incubation ensued over 15 min in a shaking water bath at 37° C. Subsequently, the samples were transferred into ultrafiltration units (Vivaspin 500, 10 kDa cut off) and centrifuged for 15 min at 10,000 RPM. The filtrate was analyzed by HPLC. Additionally, a control which was not mixed with protein nor centrifuged was carried out for each concentration. A further control without protein addition which, however, was centrifuged by the filtration unit served to validate the methodology.

[4] = Stability analysis at various pH values (phosphate buffer, HPLC); format: physicochemical; conditions: acidic medium (<pH 6)
Method: A 0.2 mM solution of dabigatran amidoxime succinic acid ester (1) was prepared in 50 mM of a potassium phosphate buffer for the stability analyses. The examination took place at pH values of 2.0, 4.0, 6.3, 7.4 and 9.0. One sample was taken and immediately analyzed by HPLC every 30 min over a period of 360 min.

[5] = Stability (ester hydrolysis) in murine plasma; format: in vitro ADME; conditions: 0.2 mM, 37° C., up to 150 min, listed as dabigatran amidoxime succinic acid ester (1)
Method: as §1

[6] = set-up: species or system rats; conditions: rat, in vivo
Method: Dabigatran was administered intravenously to 20 rats in a concentration of 10 mg/kg. Dabigatran amidoxime succinic acid ester (1), dabigatran amidoxime (2), and dabigatran etexilate were administered to 10 rats each in a concentration of 50 mg/kg as a suspension with Arabic gum (10% m/V) per gavage. 100 mM of potassium phosphate buffer of pH 9.0 was used with the dabigatran amidoxime succinic acid ester (1) in preparing the suspension so as to prevent premature cleavage of the succinyl ester in the acidic environment of the stomach. In addition, 3 rats were given dabigatran at a dosage of 50 mg/kg per gavage in order to determine the oral bioavailability of the active form itself.
After the intravenous administration, plasma samples were taken after 5, 10, 25, 50, 100, 200, and 400 min, respectively 30, 60, 90, 120, 240, 360, and 480 min after oral administration. For this purpose, 300 μl of whole blood was drawn using an insulin syringe and transferred into EDTA-coated CB 300 microvettes (Sarstedt, Nümbrecht). After each withdrawal, the sample was rinsed with 100 μl of 0.9% saline solution respectively with heparin solution (250 I.E./ml) at an interval of 60 min. The blood sample was briefly shaken and placed on ice until centrifugation (4° C.; 14,000 RPM; 10 min). The samples were stored further at −80° C.
The plasma samples were defrosted at room temperature. 5 μl of 1N HCl was prepared in each case and 55 μl of the plasma samples added by pipetting. The samples were subsequently shaken for 45 min in order to cleave the existing glucuronides. The plasma proteins were then precipitated with 55 μl of methanol and shaken for a further 30 min. The samples were centrifuged at 10,000 RPM for 15 min and the supernatant was transferred into HPLC vials. 10 μl was used in each case for the HPCL determinations.
Calibrations and analyses for recovering the dabigatran were performed in a phosphate buffer of pH 7.4, murine plasma respectively, so as to quantitatively evaluate the plasma samples.
The bioavailability of the different dabigatran prodrugs was calculated by means of the PK Solutions 2.0™ program using the plasma concentrations. Furthermore, the plasma half-life t1/2, the time of maximum plasma level tmax, as well as the maximum plasma concentration cmax were calculated.

[7] = Solubility in phosphate buffer at various pH values; format: physicochemical; conditions: shaken 10 min; for solubility at 10 min: aqueous buffer, thermodynamic from solid
Method: An amount of the dabigatran amidoxime succinic acid ester (1) which is insoluble in 150 μl was dissolved in 50 mM of a phosphate buffer (pH 6.3, pH 7.4, respectively pH 9.0) and shaken for 10 min. Solubility was not determined at the 4.0 and 2.0 pH values due to the rapid hydrolysis of the succinyl ester at acidic pH values. 3 N HCl, respectively 10% KOH, was used to adjust the pH value. After the 10 min period, the undissolved portion was removed by centrifugation (13,000 RPM, 10 min) and the samples were immediately measured by HPLC. The evaluation of the solubility ensued via a calibration of dabigatran amidoxime succinic acid ester (1) (Table 1). Dabigatran etexilate and dabigatran amidoxime (2) were examined by comparison so as to be able to better judge the solubility as compared to previously described derivatives. Solubilities were determined analogously to the method described for compound (1).

[8] = Dabigatran in organ samples (liver and kidney) after oral administration; format: in vivo; conditions: rats, oral 50 mg/kg, 8 hours after administration
Method: Slaughter ensued by guillotine decapitation 8 hours after the drug administration. The organs were subsequently removed. All organs were cleaned and frozen in 2-methylbutane cooled in dry ice. Liver, kidney, lung, spleen, heart, and brain were removed.
The organs were defrosted at room temperature and weighed. Depending on the respective organ, differing amounts of the tissues were prepared. About 1000 mg were used in case of the liver samples; about 500 mg in case of the kidney samples. Liver and kidney were examined since both organs participate in the activation of the prodrug and increased concentrations of dabigatran can therefore occur in same. Other organs are irrelevant for the bioactivation and were therefore not examined.
The organ samples (liver and kidney) were minced by means of a potter. For this purpose, each of the weighed tissues were minced with 1 ml aqua bidest for 5 min. The potter vessel was subsequently rinsed in each case with 1 ml of aqua bidest. The samples were transferred into reaction vessels and the same volume of acetonitrile was added in order to precipitate proteins. The samples were shaken for 45 min and subsequently centrifuged at 12,000 RPM for 15 min. […]
The solubilizing of the samples ensued with 400 μl of a mixture of methanol/aqua bidest (50/50). […] The concentration of dabigatran was determined from the supernatant by means of HPLC.

[9] = etexilate data from the literature; cited from earlier work

SMILES	bioavailability [6]	Cmax ([6]; po, 50 mg/kg)	maximum plasma concentrations (range) ([6]; po, 50 mg/kg)	period of detectable dabigatran plasma levels ([6]; po, 50 mg/kg)	prodrug itself in plasma ([6]; po, 50 mg/kg)	t1/2 ([6]; po, 50 mg/kg)	time at which maximum plasma concentrations were reached (range) ([6]; po, 50 mg/kg)	tmax ([6]; po, 50 mg/kg)	solubility at 10 min ([7]; pH 6.3, 50 mM phosphate buffer)	solubility at 10 min ([7]; pH 7.4, 50 mM phosphate buffer)	solubility at 10 min ([7]; pH 9.0, 50 mM phosphate buffer)	also measured
CCOC(=O)CCN(C(=O)c1ccc2c(c1)nc(CNc1ccc(/C(N)=N/OC(=O)CCC(=O)O)cc1)n2C)c1ccccn1	5.5%±1.7%	2770 ± 550 nM	1.8 to 3.7 µM	480 min	could not be identified	69.3 ± 30.4^+ min	30 to 60 min	48.0 ± 15.5^+ min	630 ± 290 µM (≈ 388 µg/mL)	4620 ± 830 µM (≈ 2840 µg/mL)	8160 ± 440 µM (≈ 5020 µg/mL)	hydrolysis of the ester bond in plasma [1]: pronounced hydrolysis of the ester bond; also recorded: very marked ester cleavage; solubility in acidic medium [2]: good solubility; fraction unbound at 15 min [3]: ~0.78; plasma protein binding ([3]; listed as dabigatran amidoxime succinic acid ester (1)): 21.8±5.3%; stability in acidic medium [4]: rather instable; hydrolysis of the ester bond in plasma [5]: pronounced hydrolysis of the ester bond; also recorded: very marked ester cleavage; dabigatran concentration in liver samples compared to other prodrugs [8]: clearly lower; dabigatran detected in liver and kidney [8]: small amounts
Cn1c(CNc2ccc(C(N)=NO)cc2)nc2cc(C(=O)N(CCC(=O)O)c3ccccn3)ccc21 [Dabigatran amidoxime (2)]	4.1 ± 1.4 %	2760 ± 1060 nM	1.7 to 5.5 µM	480 min	could not be identified	108.1 ± 56.2^+ min	30 to 60 min	36.0 ± 12.6 min	–	–	–	plasma protein binding [3]: 31.2±1.3%; solubility ([7]; pH 6.3, 50 mM phosphate buffer): 145 ± 16 µM (≈ 70.7 µg/mL); solubility ([7]; pH 7.4, 50 mM phosphate buffer): 119 ± 5 µM (≈ 58 µg/mL); solubility ([7]; pH 9.0, 50 mM phosphate buffer): 111 ± 8 µM (≈ 54.1 µg/mL)
CCCCCCOC(=O)NC(=N)c1ccc(NCc2nc3cc(C(=O)N(CCC(=O)OCC)c4ccccn4)ccc3n2C)cc1 [Dabigatran etexilate]	7.2%±2.0%	3480 ± 640 nM	2.3 to 4.5 µM	480 min	could not be identified	87.7 ± 27.5 min	30 to 90 min	57.0 ± 22.1 min	3.6 ± 2 µM (≈ 2.26 µg/mL)	0.6 ± 0.4 µM (≈ 0.377 µg/mL)	0.4 ± 0.1 µM (≈ 0.251 µg/mL)	bioavailability described in the literature [9]: 5-8%
[H]/N=C(/N)c1ccc(NCc2nc3cc(C(=O)N(CCC(=O)O)c4ccccn4)ccc3n2C)cc1 [Dabigatran]	–	240 ± 130 nM	–	–	–	58.0 ± 31.1^+ min	–	105.0 ± 21.2 min	–	–	–	period of detectable plasma levels ([6]; iv, 10 mg/kg): 400 min; bioavailability ([6]; po, 50 mg/kg): 0.3 ± 0.2 %
